The results in this text go back to US20250195521A1 (Revolution Medicines, Inc., priority 2020, published 2025).

Read-outs that look alike come from different tables or passages of the source.

Assay [1] has as its target KRAS G12S (Homo sapiens (Human), UniProt P01116+P62937, G12S). Description: Ras-Raf disruption/FRET/MOA assay (BRAF RBD, Cyclophilin A). Conditions: read-out: KRAS G12S FRET IC50. The class given is biochemical. The gist of the method: (§1)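 25 μM tagless Cyclophilin A, 12.5 nM His6-Ras-GMPPNP and 50 nM GST-BRAF RBD in HEPES pH 7.3 buffer with 5 mM MgCl2, with compound (10-point 3-fold series from 30 μM final) for 3 h at 25 °C. Anti-His Eu and anti-GST APC then added for 1.5 h. IC50 from TR-FRET ratio decrease versus DMSO.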

In assay [2] the target is KRAS G12D (Homo sapiens (Human), UniProt P01116+P62937, G12D). The description is as above. The class given is biochemical. Conditions: read-out: KRAS G12D FRET IC50. The gist of the method:
as §1

The target in assay [3] is KRAS G12V (Homo sapiens (Human), UniProt P01116+P62937, G12V). The assay is described as above. Conditions: read-out: KRAS G12V FRET IC50. The class given is biochemical. The method in brief: as §1
The target in assay [4] is KRAS WT (Homo sapiens (Human), UniProt P01116+P62937). The description is as above. The class given is biochemical. Conditions: read-out: KRAS WT FRET data IC50. The gist of the method:
as §1

Assay [5] addresses KRAS G12C (Homo sapiens (Human), UniProt P01116+P62937, G12C). The description is as above. Conditions: read-out: KRAS G12C FRET IC50. The format is biochemical. The method in brief: as §1
For assay [6], the target named is KRAS G13C (Homo sapiens (Human), UniProt P01116+P62937, G13C). The description is as above. Conditions: read-out: KRAS G13C FRET IC50. The format is biochemical. The gist of the method: as §1
In assay [7] the test system is K-Ras G12C (NCI-H358 cells). Nature of the assay: Potency assay: pERK in NCI-H358 cells. Conditions: NCI-H358 cells, 4 hours, read-out: pERK EC50 (H358 KRAS G12C). The class given is cell-based, human. The method in brief:
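Cells plated the day before were exposed for 4 h at 37° C, 5% CO2 to a 10-point, 3-fold DMSO dilution series (10 mM top stock), in duplicate. Phospho-ERK was read by AlphaLISA SureFire Ultra or by In-Cell Western with DRAQ5 DNA stain, and IC50 came from a 4-parameter sigmoidal fit.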

The subject of assay [8] is NCI-H358 cells (K-Ras G12C). Nature of the assay: CellTiter-Glo cell viability, NCI-H358. The class given is cell-based, human. Conditions: K-Ras G12C, 5-day treatment, read-out: H358 Cell Viability IC50. On the procedure:
Note—The following protocol describes a procedure for monitoring cell viability of K-Ras mutant cancer cell lines in response to a compound of the invention. Other RAS isoforms may be employed, though the number of cells to be seeded will vary based on cell line used.
Test compounds (132.5 nl) were directly dispensed into the assay plates containing cells. […] On day 5, assay plates and their contents were equilibrated to room temperature for approximately 30 minutes. […] Luminescence was measured using the PerkinElmer Enspire. Data were normalized by the following: (Sample signal/Avg. DMSO)*100. The data were fit using a four-parameter logistic fit.

The subject of assay [9] is NCI-H358 (K-Ras G12C). Nature of the assay: CellTiter-Glo cell viability assay, NCI-H358. The format is cell-based, human. Conditions: 5-day treatment, read-out: H358 Cell Viability assay data (K-Ras G12C, IC50). The method in brief: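 Luminescent CellTiter-Glo read-out on day 5 after compound exposure; signal expressed as percent of mean DMSO control; four-parameter logistic fit gives the value.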

Assay [10] addresses KRAS G13D (Homo sapiens (Human), UniProt P01116+P62937, G13D). Description: Ras-Raf disruption/FRET/MOA assay (BRAF RBD, Cyclophilin A). The format is biochemical. Conditions: read-out: KRAS G13D FRET data IC50. The gist of the method: as §1
Assay [11] addresses NRAS G12C (Homo sapiens (Human), UniProt P01111+P62937, G12C). The assay is described as above. The format is biochemical. Conditions: read-out: NRAS G12C FRET data IC50. The gist of the method: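 Ras-GMPPNP (12.5 nM), BRAF RBD (50 nM) and 25 μM Cyclophilin A were incubated with compound for 3 h at 25° C, then detected 1.5 h with anti-His Eu and anti-GST APC; IC50 values follow from the reduced TR-FRET ratio.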

Assay [12] has as its system Capan-1 cells (K-Ras G12V). Description: CellTiter-Glo cell viability, Capan-1. The format is cell-based, human. Conditions: Homo sapiens, CAPAN-1, 120 h, K-Ras G12V, 5-day treatment; read-out: Capan-1 Cell Viability IC50. The gist of the method:
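Luminescence read on day 5 after ~30 min room-temperature equilibration; compounds added directly to plated cells. Values = (sample signal/avg DMSO)*100, four-parameter logistic fit.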

NRAS G12C, sequence (P01111 whole entry G12C): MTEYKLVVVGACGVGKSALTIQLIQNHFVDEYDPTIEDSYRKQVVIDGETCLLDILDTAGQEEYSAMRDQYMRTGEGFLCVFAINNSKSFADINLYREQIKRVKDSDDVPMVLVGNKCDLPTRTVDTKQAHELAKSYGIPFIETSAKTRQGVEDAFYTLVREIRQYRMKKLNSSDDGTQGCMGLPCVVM
NRAS G12C, sequence (P62937 whole entry): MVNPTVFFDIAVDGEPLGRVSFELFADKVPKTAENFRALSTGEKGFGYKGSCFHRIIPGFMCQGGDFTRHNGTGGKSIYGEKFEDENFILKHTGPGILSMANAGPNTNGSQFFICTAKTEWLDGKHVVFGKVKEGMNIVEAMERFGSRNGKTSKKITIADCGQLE

As to `CCn1c(-c2cccnc2COC)c2c3cc(ccc31)-c1cc(O)cc(c1)C[C@H](NC(=O)[C@H](C(C)C)N(C)C(C)=O)C(=O)N1CCC[C@H](N1)C(=O)OCC(C)(C)C2` [Compound A55], the IC50 is 1000 to 10000 nM in [1]; greater than 10000 nM in [2]; 1000 to 10000 nM in assay [3]; 1000 to 10000 nM in assay [4]; 1000 to 10000 nM in assay [5]; 100 to 1000 nM in [6]. Moreover, in assay [8] (Homo sapiens, NCI-H358, 120 h), the IC50 fell in the range of 1000 to 10000 nM. Further, the EC50 in [7] (Homo sapiens) was less than 5000 nM.

As to `CCn1c(-c2cccnc2COC)c2c3cc(ccc31)-c1cc(O)cc(c1)C[C@H](NC(=O)[C@H](C(C)C)N(C)C(=O)c1ccc(NC(=O)/C=C/CN(C)C)cn1)C(=O)N1CCC[C@H](N1)C(=O)OCC(C)(C)C2` [Compound A67, (2E)-4-(dimethylamino)-N-(6-{[(1S)-1-{[(8S,14S)-22-ethyl-4-hydroxy-21-[2-(methoxymethyl)pyridin-3-yl]-18,18-dimethyl-9,15-dioxo-16-oxa-10,22,28-triazapentacyclo [18.5.2.1^2,6.1^10,14.0^23,27]nonacosa-1 (26),2,4,6 (29),20,23 (27),24-heptaen-8-yl]carbamoyl}-2-methylpropyl](methyl)carbamoyl}pyridin-3-yl) but-2-enamide], the IC50 lay in the range of 100 to 1000 nM in [1]; 100 to 1000 nM in [2]; 100 to 1000 nM in assay [3]; 10 to 100 nM in assay [5]; 10 to 100 nM in assay [6]; 1000 to 10000 nM in assay [8]. The IC50 in [9] is 100 to 1000 nM. Also, the EC50 in assay [7] is less than 5000 nM.

On to `CCn1c(-c2ccccc2CCOC)c2c3cc(ccc31)-c1cc(O)cc(c1)C[C@H](NC(=O)[C@H](C(C)C)N(C)C(=O)CNC(=N)N)C(=O)N1CCC[C@H](N1)C(=O)OCC(C)(C)C2` [Compound A69], for which the IC50 in [1] is 100 to 1000 nM; in assay [2] it was 1000 to 10000 nM; in [3] it was 1000 to 10000 nM; in assay [4], 1000 to 10000 nM; in [5], 100 to 1000 nM; in [6], 100 to 1000 nM. The IC50 is 1000 to 10000 nM in assay [10]; greater than 10000 nM in [8] (Homo sapiens, NCI-H358, 120 h); 10 to 100 nM in [9] (Homo sapiens, NCI-H358, 120 h). Also, in [7] (Homo sapiens), the EC50 was less than 5000 nM.

On to `CCn1c(-c2cccnc2[C@H](C)OC)c2c3cc(ccc31)-c1cc(O)cc(c1)C[C@H](NC(=O)[C@H](C(C)C)N(C)C(=O)C1(F)CC1)C(=O)N1CCC[C@H](N1)C(=O)OCC(C)(C)C2` [Compound A165], for which the IC50 in assay [1] is 10 to 100 nM; in assay [2], 100 to 1000 nM; in assay [4], 10 to 100 nM; in assay [5], 10 to 100 nM; in assay [6], 10 to 100 nM; in [11] it was 10 to 100 nM. Besides, the half-inhibitory concentration (IC50) was in the range of 10 to 100 nM in assay [10] and 10 to 100 nM in [8] (Homo sapiens, NCI-H358, 120 h).

Regarding `CCn1c(-c2cccnc2[C@H](C)OC)c2c3cc(ccc31)-c1cc(O)cc(c1)C[C@H](NC(=O)[C@H](C(C)C)N(C)C(=O)[C@H]1C[C@@H]1O)C(=O)N1CCC[C@H](N1)C(=O)OCC(C)(C)C2` [Compound A323], the IC50 in assay [1] is 10 to 100 nM; in assay [3], 10 to 100 nM; in assay [5] it was less than 10 nM; in [11], less than 10 nM; in assay [10] it was 10 to 100 nM; in assay [12], 100 to 1000 nM. Besides, the IC50 in [8] (Homo sapiens, NCI-H358, 120 h) was in the range of 100 to 1000 nM.

On to “(2S)—N-[(8S,14S)-22-ethyl-4-hydroxy-21-[4-(methoxymethyl)pyridin-3-yl]-18,18-dimethyl-9,15-dioxo-16-oxa-10,22,28-triazapentacyclo [18.5.2.1^2,6.1^10,14.0^23,27]nonacosa-1 (26),2,4,6 (29),20,23 (27),24-heptaen-8-yl]-2-{1-[(3S)-1-{2-[(3R)-3-hydroxypyrrolidin-1-yl]acetyl}pyrrolidin-3-yl]-N-methylformamido}-3-methylbutanamide [Compound A6]”, for which the IC50 was in the range of 10 to 100 nM in assay [1]; 100 to 1000 nM in assay [2]; 100 to 1000 nM in assay [3]; 10 to 100 nM in assay [5]; 100 to 1000 nM in assay [6]; 1000 to 10000 nM in assay [8]. Also, the IC50 in assay [9] is 100 to 1000 nM. In addition, in [7], the EC50 is less than 5000 nM.
